From patent publication US9364564B2, “Pre-mixed, ready-to-use pharmaceutical compositions” (EKR Therapeutics, Inc., priority 2006, dated 2016)
Where a name gives a salt, the structure may show the parent alone.

Key:
[1] = Stability of concentrated ampul product after dilution with intravenous infusion fluids; format: physicochemical; conditions: diluted to 0.1 mg/ml in IV bag, 24 hours, final pH above 4.5
Experimental: Stability results for the concentrated ampul product diluted to 0.1 mg/ml with various commonly used intravenous infusion fluids in an IV bag are shown in FIG. 1. pH after mixing was measured and is reported on the X-axis. Product stability was measured by monitoring the % drug remaining after duration of 24 hours by RP-HPLC and is shown on the Y-axis.

[2] = Effect of plastic film composition (IV bag type) on stability at 40° C.; format: physicochemical; conditions: bags containing PVC (VIAFLEX, INTRAVIA), 0.2 mg/mL non-sorbitol dextrose formulation
Experimental: The effect of plastic film composition on the stability of ready to use premixed compositions comprising 0.2 mg/mL nicardipine HCl, 0.2 mM citrate, 5% dextrose, pH 4.0-4.2 for “incompatible” bags and “compatible” bags is shown in FIGS. 5A and 5B respectively. “Incompatible” bags contain polar polymers, such as polyvinyl chloride (PVC) and ethylene vinyl acetate (EVA). […] Stability evaluations were done for the 0.2 mg/mL non-sorbitol dextrose formulation in various commercially available IV infusion bag systems. […]®, and VISIV® bags were rinsed in water and covered with aluminum foil over pouches. The bags were filled with the above formulation and autoclaved at 105° C. for 21 minutes. […]®71 and GALAXY® bags were aseptically filled with the above formulation. Stability assessments were done by measuring the % drug remaining and total impurity formation (data not shown) as a function of time using RP-HPLC for samples incubated for up to 24 weeks at 40° C. The % drug remaining was calculated relative to the concentration measured post-mixing in tank.

[3] = weak base; cited from earlier work
[4] = cited from earlier work

drug loss post dilution [1] | loss in product potency upon storage [2] | Structure (SMILES) | pKa [3] | solubility in water [4]
very pronounced drug loss | Significant loss in product potency | COC(=O)C1=C(C)NC(C)=C(C(=O)OCCN(C)Cc2ccccc2)C1c1cccc([N+](=O)[O-])c1 (racemic) [nicardipine HCl, (±)-2-(benzyl-methylamino) ethyl methyl 1,4-dihydro-2,6-dimethyl-4-(m-nitrophenyl)-3,5-pyridinedicarboxylate monohydrochloride] | ~7.2 | –
– | – | COC(=O)C1=C(C)NC(C)=C(C(=O)OCCN(C)Cc2ccccc2)C1c1cccc([N+](=O)[O-])c1 (stereo not shown) [Nicardipine, nicardipine] | – | only slightly soluble
